From publication PMC10860182 (ACS Medicinal Chemistry Letters, 2024)
Read-outs that look alike come from different tables or passages of the source.

Experiments:
human 5-HT2A = human 5-HT2A (Homo sapiens, UniProt P28223); details: for 5-HT2A % Max: % 5-HT Max, human 5-HT2A-CHO cells; for higher agonist potency for 5-HT2B and 5-HT2C relative to 5-HT2A: compared with 5-HT2A potency
human 5-HT2B = human 5-HT2B (Homo sapiens, UniProt P41595); details: % 5-HT Max, human 5-HT2B-HEK293 cells
human 5-HT2C = human 5-HT2C (Homo sapiens, UniProt P28335); details: % 5-HT Max, human 5-HT2C-CHO cells
Chain of human 5-HT2C (P28335 33-458): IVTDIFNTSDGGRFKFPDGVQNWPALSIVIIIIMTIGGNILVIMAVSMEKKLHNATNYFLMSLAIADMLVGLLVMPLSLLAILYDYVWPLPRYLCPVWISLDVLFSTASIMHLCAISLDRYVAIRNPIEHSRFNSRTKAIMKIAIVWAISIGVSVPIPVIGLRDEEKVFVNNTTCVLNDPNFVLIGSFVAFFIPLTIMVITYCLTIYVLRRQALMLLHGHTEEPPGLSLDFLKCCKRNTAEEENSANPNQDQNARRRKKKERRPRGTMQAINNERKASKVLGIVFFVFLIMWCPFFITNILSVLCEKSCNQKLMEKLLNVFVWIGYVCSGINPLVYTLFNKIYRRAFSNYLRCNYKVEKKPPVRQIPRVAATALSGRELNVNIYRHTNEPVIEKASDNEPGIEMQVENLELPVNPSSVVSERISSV

[1] = predicted hepatic clearance, human hepatic microsomes
5-HT2B = details: read-out: 5-HT2B EC50; previously described, patent application ref 20; cited from earlier work
[2] = predicted hepatic clearance, rat
P-gp [3] = molecular target: T1, P-gp (Homo sapiens, UniProt P08183); details: MDCK-MDR1 cells, 5 µM
T1 sequence (P08183 whole entry): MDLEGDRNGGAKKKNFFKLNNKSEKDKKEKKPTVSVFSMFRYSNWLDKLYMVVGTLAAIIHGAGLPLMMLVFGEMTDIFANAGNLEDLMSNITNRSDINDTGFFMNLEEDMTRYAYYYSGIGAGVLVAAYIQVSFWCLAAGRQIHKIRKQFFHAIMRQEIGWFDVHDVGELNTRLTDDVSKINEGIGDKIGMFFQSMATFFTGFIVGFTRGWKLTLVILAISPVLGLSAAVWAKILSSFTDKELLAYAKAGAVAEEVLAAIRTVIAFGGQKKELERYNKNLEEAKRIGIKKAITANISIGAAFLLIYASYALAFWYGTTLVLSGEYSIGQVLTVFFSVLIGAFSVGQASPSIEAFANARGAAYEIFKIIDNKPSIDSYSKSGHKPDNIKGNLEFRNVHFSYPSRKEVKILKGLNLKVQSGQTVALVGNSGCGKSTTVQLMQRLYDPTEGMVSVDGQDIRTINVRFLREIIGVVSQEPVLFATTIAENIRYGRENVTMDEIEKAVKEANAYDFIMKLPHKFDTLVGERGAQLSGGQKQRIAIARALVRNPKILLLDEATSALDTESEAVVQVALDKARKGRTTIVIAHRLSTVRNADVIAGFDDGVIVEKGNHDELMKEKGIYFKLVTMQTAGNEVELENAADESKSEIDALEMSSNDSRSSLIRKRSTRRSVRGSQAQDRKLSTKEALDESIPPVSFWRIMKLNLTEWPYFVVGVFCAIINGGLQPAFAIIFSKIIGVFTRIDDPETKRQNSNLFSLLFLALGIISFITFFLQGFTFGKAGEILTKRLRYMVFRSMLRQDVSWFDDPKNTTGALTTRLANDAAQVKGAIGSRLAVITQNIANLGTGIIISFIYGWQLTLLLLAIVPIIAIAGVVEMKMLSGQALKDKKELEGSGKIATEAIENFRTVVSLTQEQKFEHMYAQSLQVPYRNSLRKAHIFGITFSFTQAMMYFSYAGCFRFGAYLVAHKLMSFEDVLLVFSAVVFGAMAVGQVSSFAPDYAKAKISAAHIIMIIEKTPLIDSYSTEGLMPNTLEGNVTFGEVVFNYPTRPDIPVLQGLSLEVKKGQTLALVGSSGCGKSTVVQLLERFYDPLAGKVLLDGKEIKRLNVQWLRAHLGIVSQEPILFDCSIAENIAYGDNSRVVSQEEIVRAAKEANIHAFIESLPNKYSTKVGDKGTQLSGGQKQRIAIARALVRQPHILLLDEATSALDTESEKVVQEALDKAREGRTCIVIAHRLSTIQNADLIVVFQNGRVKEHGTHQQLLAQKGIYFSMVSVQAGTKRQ

[4] = rat PK cassette, iv, 0.2 mg/kg
in vivo = details: male, Sprague Dawley, rat, iv, 0.2 mg/kg
in vitro [5] = details: human, plasma, pH 7.4
in vitro [6] = details: rat, plasma, pH 7.4
in vitro [7] = details: mouse, plasma, pH 7.4
P-gp [8] = molecular target: T1, P-gp; experiment: in vitro; details: MDCK-MDR1

Chain of human 5-HT2B (P41595 whole entry): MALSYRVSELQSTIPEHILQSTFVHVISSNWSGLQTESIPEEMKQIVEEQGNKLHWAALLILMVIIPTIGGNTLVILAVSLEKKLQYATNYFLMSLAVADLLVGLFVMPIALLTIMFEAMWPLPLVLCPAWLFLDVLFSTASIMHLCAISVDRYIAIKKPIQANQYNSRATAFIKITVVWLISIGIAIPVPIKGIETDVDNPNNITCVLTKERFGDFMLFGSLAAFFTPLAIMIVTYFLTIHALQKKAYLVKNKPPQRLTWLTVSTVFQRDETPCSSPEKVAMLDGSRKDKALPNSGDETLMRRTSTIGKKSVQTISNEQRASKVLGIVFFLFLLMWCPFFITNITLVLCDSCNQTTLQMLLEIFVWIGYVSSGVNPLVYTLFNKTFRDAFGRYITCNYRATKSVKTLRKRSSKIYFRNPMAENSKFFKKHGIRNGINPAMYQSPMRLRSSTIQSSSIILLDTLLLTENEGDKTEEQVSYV
Chain of human 5-HT2A (P28223 whole entry): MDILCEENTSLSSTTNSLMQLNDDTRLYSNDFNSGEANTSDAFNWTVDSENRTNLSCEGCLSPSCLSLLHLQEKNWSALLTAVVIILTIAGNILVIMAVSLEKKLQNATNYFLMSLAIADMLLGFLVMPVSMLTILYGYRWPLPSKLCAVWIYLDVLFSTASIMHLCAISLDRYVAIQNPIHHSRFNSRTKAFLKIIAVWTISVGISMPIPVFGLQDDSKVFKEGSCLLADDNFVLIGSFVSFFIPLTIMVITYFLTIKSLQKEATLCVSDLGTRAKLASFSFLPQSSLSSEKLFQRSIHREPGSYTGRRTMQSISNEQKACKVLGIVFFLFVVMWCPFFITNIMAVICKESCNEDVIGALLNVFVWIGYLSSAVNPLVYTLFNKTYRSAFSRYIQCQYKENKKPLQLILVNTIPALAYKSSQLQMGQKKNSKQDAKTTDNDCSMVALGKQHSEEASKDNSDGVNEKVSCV

SMILES	5-HT2A % Max (human 5-HT2A)	5-HT2B % Max (human 5-HT2B)	5-HT2C % Max (human 5-HT2C)	CLhep [1]	other results
COc1ccc2[nH]nc(CCN(C)C)c2c1 [Compound 6a]	10.7 ± 0.6%	48.0 ± 7.6%	32.1 ± 2.2%	12.1 (mL/min)/kg	EC50 (5-HT2B): > 10 µM
[2H]C([2H])(Cc1n[nH]c2ccc(OC)cc12)N(C)C [Compound 6b]	11.7 ± 0.6%	60.5%	32.3%	11.7 (mL/min)/kg	–
CN(C)CCc1n[nH]c2ccc(O)cc12 [Compound 16]	26.2 ± 1.4%	53.7%	53.3%	–	–
C1=C(c2n[nH]c3ccccc23)CNCC1 [Compound 19a]	17.5 ± 3.2%	83.8 ± 1.9%	67.7 ± 6.6%	–	higher agonist potency for 5-HT2B and 5-HT2C relative to 5-HT2A (human 5-HT2A): approximately 10 fold
Cn1nc(C2=CCCNC2)c2ccccc21 [Compound 19b]	42.2 ± 3.7%	48.0 ± 4.8%	50.3 ± 2.4%	–	higher agonist potency for 5-HT2B and 5-HT2C relative to 5-HT2A (human 5-HT2A): approximately 10 fold
Brc1ccc2[nH]nc(C3=CCCNC3)c2c1 [Compound 19d]	41.4 ± 3.4%	82.8 ± 1.9%	93.9%	5.6 (mL/min)/kg	CLhep [2]: 58 (mL/min)/kg; PappA-B (P-gp [3]): 7.9 10^–6 cm/s; CLp [4]: 34.2 (mL/min)/kg; Kp at 0.25 h (in vivo; brain): 5.4; Vd at 24 h (in vivo; plasma): 6.33 L/kg; half-life at 24 h (in vivo; plasma): 168 min; fraction unbound at 6 h, 5 µM (in vitro [5]): 0.12; fraction unbound at 6 h, 5 µM (in vitro [6]): 0.13; fraction unbound at 6 h, 5 µM (in vitro [7]): 0.12; efflux ratio at 5 µM (P-gp [8]): 1.3
Nc1ccc2[nH]nc(C3=CCCNC3)c2c1 [Compound 19e]	40.4 ± 1.3%	96.1%	86.9%	–	–
COc1ccc2[nH]nc(C3=CCCNC3)c2c1 [Compound 19f]	12.3 ± 1.8%	93.6%	59.8 ± 3.2%	–	–
